Experiments:
Assay in all cases: relative viability (nuclei count vs DMSO), 5 days (fraction); higher = more cells survive
[1] = test system: ChaGo-K-1
Method in brief: (§1)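 Nuclei were stained with Hoechst during a one-step fixation (final 0.05% Triton X-100, 1% formaldehyde, 1 ug/ml Hoechst) carried out 5 days after dosing, then counted on 4× images. The cells, lung cancer lines in 1536-well plates, had been dosed by pin tool the day after seeding with one drug alone or a fixed anchor-drug dose plus five library-drug doses (not always all listed) in √10 steps. Relative viability is the nuclei count in treated wells divided by that in vehicle wells, and each value is the median of duplicate plates.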

[2] = test system: EKVX
Method in brief: as §1

[3] = test system: EPLC-272H
Method in brief: as §1

[4] = test system: H3255
Method in brief: as §1

[5] = test system: HCC-827
Method in brief: as §1

[6] = test system: HOP-62
Method in brief: as §1

[7] = test system: LCLC-97TM1
Method in brief: as §1

[8] = test system: LK-2
Method in brief: as §1

[9] = test system: LU99A
Method in brief: as §1

[10] = test system: LXF-289
Method in brief: as §1

[11] = test system: NCI-H1355
Method in brief: as §1

[12] = test system: NCI-H1650
Method in brief: as §1

[13] = test system: NCI-H1993
Method in brief: as §1

[14] = test system: NCI-H2170
Method in brief: as §1

[15] = test system: NCI-H2228
Method in brief: as §1

[16] = test system: NCI-H2405
Method in brief: as §1

[17] = test system: NCI-H3122
Method in brief: as §1

[18] = test system: NCI-H441
Method in brief: as §1

[19] = test system: NCI-H522
Method in brief: as §1

[20] = test system: PC-3 [JPC-3]
Method in brief: as §1

[21] = test system: SK-LU-1
Method in brief: as §1

[22] = test system: SW 1573
Method in brief: as §1

[23] = test system: UMC-11
Method in brief: as §1

Cc1cn(-c2cc(NC(=O)c3ccc(C)c(Nc4nccc(-c5cccnc5)n4)c3)cc(C(F)(F)F)c2)cn1 [Nilotinib] + O=C(CCCCCCC(=O)Nc1ccccc1)NO [Vorinostat] (partner 1 µM) gave a relative viability ([1]; first compound 0.001 µM) of 0.654, a relative viability ([1]; first compound 0.003162 µM) of 0.979 and a relative viability ([1]; first compound 0.01 µM) of 0.804. It also gave a relative viability ([1]; first compound 0.03162 µM) of 0.733, a relative viability ([1]; first compound 0.1 µM) of 0.4 and a relative viability ([2]; first compound 0.001 µM) of 0.65. For the same compound, the relative viability ([2]; first compound 0.003162 µM) was 0.879, the relative viability ([2]; first compound 0.01 µM) was 0.704 and the relative viability ([2]; first compound 0.03162 µM) was 0.55. It also gave a relative viability ([2]; first compound 0.1 µM) of 0.718, a relative viability ([3]; first compound 0.001 µM) of 0.376 and a relative viability ([3]; first compound 0.003162 µM) of 0.331. It also gave a relative viability ([3]; first compound 0.01 µM) of 0.37, a relative viability ([3]; first compound 0.03162 µM) of 0.407 and a relative viability ([3]; first compound 0.1 µM) of 0.579. The relative viability ([4]; first compound 0.001 µM) was 0.743, the relative viability ([4]; first compound 0.003162 µM) was 0.706 and the relative viability ([4]; first compound 0.03162 µM) was 0.764. For the same compound, the relative viability ([4]; first compound 0.1 µM) was 0.429, the relative viability ([5]; first compound 0.001 µM) was 0.835 and the relative viability ([5]; first compound 0.003162 µM) was 0.983. For the same compound, the relative viability ([5]; first compound 0.03162 µM) was 0.857, the relative viability ([5]; first compound 0.1 µM) was 0.822 and the relative viability ([6]; first compound 0.001 µM) was 0.625. For the same compound, the relative viability ([6]; first compound 0.003162 µM) was 0.567, the relative viability ([6]; first compound 0.01 µM) was 0.631 and the relative viability ([6]; first compound 0.03162 µM) was 0.479. For the same compound, the relative viability ([7]; first compound 0.001 µM) was 0.605, the relative viability ([7]; first compound 0.003162 µM) was 0.891 and the relative viability ([7]; first compound 0.01 µM) was 0.964. The relative viability ([7]; first compound 0.03162 µM) was 0.515, the relative viability ([7]; first compound 0.1 µM) was 0.102 and the relative viability ([8]; first compound 0.001 µM) was 0.261. It also gave a relative viability ([8]; first compound 0.003162 µM) of 0.23, a relative viability ([8]; first compound 0.01 µM) of 0.342 and a relative viability ([8]; first compound 0.03162 µM) of 0.199. For the same compound, the relative viability ([8]; first compound 0.1 µM) was 0.27, the relative viability ([9]; first compound 0.001 µM) was 0.429 and the relative viability ([9]; first compound 0.003162 µM) was 0.506. For the same compound, the relative viability ([9]; first compound 0.01 µM) was 0.468, the relative viability ([9]; first compound 0.03162 µM) was 0.411 and the relative viability ([9]; first compound 0.1 µM) was 0.353. For the same compound, the relative viability ([10]; first compound 0.001 µM) was 0.693, the relative viability ([10]; first compound 0.003162 µM) was 0.994 and the relative viability ([10]; first compound 0.01 µM) was 0.882. For the same compound, the relative viability ([10]; first compound 0.03162 µM) was 0.869, the relative viability ([10]; first compound 0.1 µM) was 0.534 and the relative viability ([11]; first compound 0.001 µM) was 0.6. For the same compound, the relative viability ([11]; first compound 0.003162 µM) was 0.695, the relative viability ([11]; first compound 0.01 µM) was 0.67 and the relative viability ([11]; first compound 0.03162 µM) was 0.59. It also gave a relative viability ([11]; first compound 0.1 µM) of 0.335, a relative viability ([12]; first compound 0.001 µM) of 0.49 and a relative viability ([12]; first compound 0.003162 µM) of 0.733. It also gave a relative viability ([12]; first compound 0.01 µM) of 0.746, a relative viability ([12]; first compound 0.03162 µM) of 0.488 and a relative viability ([12]; first compound 0.1 µM) of 0.528. For the same compound, the relative viability ([13]; first compound 0.001 µM) was 0.6, the relative viability ([13]; first compound 0.003162 µM) was 0.655 and the relative viability ([13]; first compound 0.01 µM) was 0.843. It also gave a relative viability ([13]; first compound 0.03162 µM) of 0.722, a relative viability ([13]; first compound 0.1 µM) of 0.497 and a relative viability ([14]; first compound 0.001 µM) of 0.818. The relative viability ([14]; first compound 0.003162 µM) was 1.16, the relative viability ([14]; first compound 0.01 µM) was 1.05 and the relative viability ([14]; first compound 0.03162 µM) was 0.622. For the same compound, the relative viability ([14]; first compound 0.1 µM) was 0.877, the relative viability ([15]; first compound 0.001 µM) was 0.659 and the relative viability ([15]; first compound 0.003162 µM) was 0.616. It also gave a relative viability ([15]; first compound 0.01 µM) of 0.594, a relative viability ([15]; first compound 0.03162 µM) of 0.501 and a relative viability ([15]; first compound 0.1 µM) of 0.588. It also gave a relative viability ([16]; first compound 0.001 µM) of 0.946, a relative viability ([16]; first compound 0.003162 µM) of 0.927 and a relative viability ([16]; first compound 0.03162 µM) of 0.763. The relative viability ([16]; first compound 0.1 µM) was 0.521, the relative viability ([17]; first compound 0.001 µM) was 0.85 and the relative viability ([17]; first compound 0.003162 µM) was 1.47. For the same compound, the relative viability ([17]; first compound 0.01 µM) was 1.07, the relative viability ([17]; first compound 0.03162 µM) was 0.89 and the relative viability ([17]; first compound 0.1 µM) was 0.851. The relative viability ([18]; first compound 0.001 µM) was 0.544, the relative viability ([18]; first compound 0.003162 µM) was 1.02 and the relative viability ([18]; first compound 0.01 µM) was 0.742. It also gave a relative viability ([18]; first compound 0.03162 µM) of 0.532, a relative viability ([18]; first compound 0.1 µM) of 0.71 and a relative viability ([19]; first compound 0.01 µM) of 1.01. It also gave a relative viability ([19]; first compound 0.03162 µM) of 0.749, a relative viability ([19]; first compound 0.1 µM) of 0.786 and a relative viability ([20]; first compound 0.001 µM) of 0.792. For the same compound, the relative viability ([20]; first compound 0.01 µM) was 0.668, the relative viability ([20]; first compound 0.03162 µM) was 0.691 and the relative viability ([20]; first compound 0.1 µM) was 0.53. For the same compound, the relative viability ([21]; first compound 0.001 µM) was 0.628, the relative viability ([21]; first compound 0.003162 µM) was 0.756 and the relative viability ([21]; first compound 0.01 µM) was 0.865. For the same compound, the relative viability ([21]; first compound 0.03162 µM) was 0.632, the relative viability ([21]; first compound 0.1 µM) was 0.692 and the relative viability ([22]; first compound 0.001 µM) was 0.527. For the same compound, the relative viability ([22]; first compound 0.003162 µM) was 0.849, the relative viability ([22]; first compound 0.01 µM) was 0.977 and the relative viability ([22]; first compound 0.03162 µM) was 0.438. It also gave a relative viability ([22]; first compound 0.1 µM) of 0.222, a relative viability ([23]; first compound 0.001 µM) of 0.359 and a relative viability ([23]; first compound 0.003162 µM) of 0.398. For the same compound, the relative viability ([23]; first compound 0.01 µM) was 0.346, the relative viability ([23]; first compound 0.03162 µM) was 0.336 and the relative viability ([23]; first compound 0.1 µM) was 0.458.

From the supplement of paper PMC10307832
